{
  "source": "paper PMC4146477",
  "about": "“Synthesis and Antimycobacterial and Photosynthesis-Inhibiting Evaluation of 2-[(E)-2-Substituted-ethenyl]-1,3-benzoxazoles” (The Scientific World Journal, 2014)",
  "key": {"[1]": {"system": "photosynthetic electron transport (PET) in spinach chloroplasts", "test": "Inhibition of photosynthetic electron transport (PET) in spinach chloroplasts (DCPIP photoreduction)", "format": "biochemical, Spinacia oleracea L.", "settings": "DCPIP as electron acceptor", "protocol": "Chloroplasts were prepared from spinach (Spinacia oleracea L.) according to Masarovicova and Kralova. The inhibition of photosynthetic electron transport (PET) in spinach chloroplasts was determined spectrophotometrically (Genesys 6, Thermo Scientific), using an artificial electron acceptor 2,6-dichlorophenol-indophenol (DCPIP) according to Kralova et al., and the rate of photosynthetic electron transport was monitored as a photoreduction of DCPIP. The measurements were carried out in phosphate buffer (0.02 mol/L, pH 7.2) containing sucrose (0.4 mol/L), MgCl2 (0.005 mol/L), and NaCl (0.015 mol/L). The chlorophyll content was 30 mg/L in these experiments and the samples were irradiated (~100 W/m^2 with 10 cm distance) with a halogen lamp (250 W) using a 4 cm water filter to prevent warming of the samples (suspension temperature 22°C). The studied compounds were dissolved in DMSO due to their limited water solubility. […] The inhibitory efficiency of the studied compounds was expressed by IC50 values, that is, by molar concentration of the compounds causing 50% decrease in the oxygen evolution rate relative to the untreated control."}, "M. avium My 330/88": {"system": "M. avium My 330/88", "test": "In vitro antimycobacterial evaluation (MIC, Sula semisynthetic medium)", "format": "cell-based", "settings": "Mycobacterium avium"}, "[2]": {"test": "Lipophilicity determination by RP-HPLC (capacity factor k / log k)", "format": "physicochemical", "settings": "C18, MeOH 70% / H2O 30%, isocratic", "excerpt": "A Waters Alliance 2695 XE HPLC separation module and a Waters Photodiode Array Detector 2996 (Waters Corp., Milford, MA, USA) were used. A Symmetry C18 5 μm, 4.6 × 250 mm, Part No. WAT054275 (Waters Corp., Milford, MA, USA) chromatographic column was used. The HPLC separation process was monitored by Empower 2 Chromatography Data Software, Waters 2009 (Waters Corp., Milford, MA, USA). A mixture of MeOH p.a. (70%) and H2O-HPLC - Mili-Q Grade (30%) was used as a mobile phase. The total flow of the column was 1.0 mL/min, injection volume, 30 μL, column temperature, 45°C, and sample temperature, 10°C. The detection wavelength of 210 nm was chosen. The KI methanolic solution was used for the dead time (t D) determination. Retention times (t R) were measured in minutes. The capacity factors k were calculated using the Empower 2 Chromatography Data Software according to formula k = (t R − t D)/t D, where t R is the retention time of the solute, whereas t D denotes the dead time obtained using an unretained analyte.\nLipophilicity is a property that has a major effect on ADME/Tox properties as well as pharmacological activity, because drugs mostly cross biological membranes through passive transport, which strongly depends on their lipophilicity. Lipophilicity has been studied and applied as an important drug property for decades. This parameter was measured by means of RP-HPLC and expressed as logarithm of capacity factor k. The procedure was performed under isocratic conditions with methanol as an organic modifier in the mobile phase using an end-capped nonpolar C18 stationary RP column. The hydrophobic contributions (expressed as distributive parameters π) of individual substituents in C(2) position of 2-[(E)-2-substituted-ethenyl]-1,3-benzoxazole scaffold were predicted using ACD/Percepta ver. 2012 (Advanced Chemistry Development, Inc., Toronto, ON, Canada). The results are shown in Table 1 and the match of the experimental determined lipophilicity log k with calculated distributive parameters π is illustrated in Figure 1."}, "[3]": {"system": "Mycobacterium tuberculosis My 331/88", "test": "In vitro antimycobacterial evaluation (MIC, Sula semisynthetic medium)", "format": "cell-based"}, "M. kansasii My 235/80": {"system": "M. kansasii My 235/80", "test": "In vitro antimycobacterial evaluation (MIC, Sula semisynthetic medium)", "format": "cell-based", "settings": "Mycobacterium kansasii"}, "[4]": {"settings": "MY330/88, 336 h, 14d incubation"}, "[5]": {"settings": "MY330/88, 504 h, 21d incubation"}, "[6]": {"settings": "MY331/88, 336 h, 14d incubation"}, "[7]": {"settings": "MY331/88, 504 h, 21d incubation"}, "[8]": {"settings": "MY235/80, 336 h, 14d incubation, read-out: MIC MK"}, "[9]": {"settings": "MY235/80, 504 h, 21d incubation, read-out: MIC MK"}},
  "note": "Several values for one entry are separate records, joined by “and”; a condition that tells them apart may be missing. Equal entries are not always repeated. Where two headings read alike, the source gives them in different places.",
  "data": [
    {"smiles": "C(=C\\c1nc2ccccc2o1)/c1ccc2c(c1)CCO2", "note": "[Compound 8, 2-[(E)-2-(2,3-Dihydro-1-benzofuran-5-yl)ethenyl]-1,3-benzoxazole]", "values": [
      {"measurement": "IC50", "setting": "[1]", "result": 131, "unit": "µM"},
      {"measurement": "MIC", "setting": "M. avium My 330/88; [4]", "result": 32, "unit": "µM"},
      {"measurement": "MIC", "setting": "M. avium My 330/88; [5]", "result": 32, "unit": "µM"},
      {"measurement": "log k", "setting": "[2]", "result": 0.9397},
      {"measurement": "MIC", "setting": "[3]; [6]", "result": 62.5, "unit": "µM"},
      {"measurement": "MIC", "setting": "[3]; [7]", "result": 62.5, "unit": "µM"},
      {"measurement": "MIC", "setting": "M. kansasii My 235/80; [8]", "result": 62.5, "unit": "µM"},
      {"measurement": "MIC", "setting": "M. kansasii My 235/80; [9]", "result": 250, "unit": "µM"}
    ]},
    {"smiles": "C(=C\\c1nc2ccccc2o1)/c1ccco1", "note": "[Compound 9, 2-[(E)-2-(Furan-2-yl)ethenyl]-1,3-benzoxazole]", "values": [
      {"measurement": "IC50", "setting": "[1]", "result": 224, "unit": "µM"},
      {"measurement": "MIC", "setting": "M. avium My 330/88; [4]", "result": 62.5, "unit": "µM"},
      {"measurement": "MIC", "setting": "M. avium My 330/88; [5]", "result": 125, "unit": "µM"},
      {"measurement": "MIC", "setting": "[3]; [6]", "result": 62.5, "unit": "µM"},
      {"measurement": "MIC", "setting": "[3]; [7]", "result": 125, "unit": "µM"},
      {"measurement": "MIC", "setting": "M. kansasii My 235/80; [8]", "result": 125, "unit": "µM"},
      {"measurement": "MIC", "setting": "M. kansasii My 235/80; [9]", "result": 125, "unit": "µM"}
    ]},
    {"smiles": "CCc1ccc(/C=C/c2nc3ccccc3o2)o1", "note": "[Compound 10, 2-[(E)-2-(5-Ethylfuran-2-yl)ethenyl]-1,3-benzoxazole]", "values": [
      {"measurement": "IC50", "setting": "[1]", "result": 122, "unit": "µM"},
      {"measurement": "MIC", "setting": "M. avium My 330/88; [4]", "result": 250, "unit": "µM"},
      {"measurement": "MIC", "setting": "M. avium My 330/88; [5]", "result": 250, "unit": "µM"},
      {"measurement": "log k", "setting": "[2]", "result": 1.0702},
      {"measurement": "MIC", "setting": "[3]; [6]", "result": 250, "unit": "µM"},
      {"measurement": "MIC", "setting": "[3]; [7]", "result": 250, "unit": "µM"},
      {"measurement": "MIC", "setting": "M. kansasii My 235/80; [8]", "result": 62.5, "unit": "µM"},
      {"measurement": "MIC", "setting": "M. kansasii My 235/80; [9]", "result": 250, "unit": "µM"}
    ]},
    {"smiles": "C(/C=C/c1nc2ccccc2o1)=C\\c1ccccc1", "note": "[Compound 11, 2-[(1E,3E)-4-Phenylbuta-1,3-dien-1-yl]-1,3-benzoxazole]", "values": [
      {"measurement": "IC50", "setting": "[1]", "result": 778, "unit": "µM"},
      {"measurement": "MIC", "setting": "M. avium My 330/88; [4]", "result": 250, "unit": "µM"},
      {"measurement": "MIC", "setting": "M. avium My 330/88; [5]", "result": 500, "unit": "µM"},
      {"measurement": "MIC", "setting": "[3]; [6]", "result": 125, "unit": "µM"},
      {"measurement": "MIC", "setting": "[3]; [7]", "result": 250, "unit": "µM"},
      {"measurement": "MIC", "setting": "M. kansasii My 235/80; [8]", "result": 500, "unit": "µM"},
      {"measurement": "MIC", "setting": "M. kansasii My 235/80; [9]", "result": 500, "unit": "µM"},
      {"measurement": "MIC", "setting": "M. kansasii My 235/80; MY235/80, incubation time not stated, read-out: inhibitory activity (MIC) against M. kansasii", "result": 500, "unit": "µM"}
    ]},
    {"smiles": "COc1ccc(/C=C/C=C/c2nc3ccccc3o2)cc1", "note": "[Compound 12, 2-[(1E,3E)-4-(4-Methoxyphenyl)buta-1,3-dien-1-yl]-1,3-benzoxazole]", "values": [
      {"measurement": "IC50", "setting": "[1]", "result": 351, "unit": "µM"},
      {"measurement": "MIC", "setting": "M. avium My 330/88; [4]", "result": 125, "unit": "µM"},
      {"measurement": "MIC", "setting": "M. avium My 330/88; [5]", "result": 125, "unit": "µM"},
      {"measurement": "log k", "setting": "[2]", "result": 1.1394},
      {"measurement": "MIC", "setting": "[3]; [6]", "result": 125, "unit": "µM"},
      {"measurement": "MIC", "setting": "[3]; [7]", "result": 250, "unit": "µM"},
      {"measurement": "MIC", "setting": "M. kansasii My 235/80; [8]", "result": 125, "unit": "µM"},
      {"measurement": "MIC", "setting": "M. kansasii My 235/80; [9]", "result": 250, "unit": "µM"}
    ]},
    {"smiles": "CN(C)C(=O)Nc1ccc(Cl)c(Cl)c1", "note": "[DCMU, 3-(3,4-dichlorophenyl)-1,1-dimethylurea, reference compound]", "values": [
      {"measurement": "IC50", "setting": "[1]", "result": "~1.9 µM and 1.9 µM"}
    ]},
    {"smiles": "NNC(=O)c1ccncc1", "note": "[INH, isoniazid, reference compound]", "values": [
      {"measurement": "MIC", "setting": "M. avium My 330/88; [4]", "result": "> 250", "unit": "µM"},
      {"measurement": "MIC", "setting": "M. avium My 330/88; [5]", "result": "> 250", "unit": "µM"},
      {"measurement": "MIC", "setting": "[3]; [6]", "result": 0.5, "unit": "µM"},
      {"measurement": "MIC", "setting": "[3]; [7]", "result": 0.5, "unit": "µM"},
      {"measurement": "MIC", "setting": "M. kansasii My 235/80; [8]", "result": "> 250", "unit": "µM"},
      {"measurement": "MIC", "setting": "M. kansasii My 235/80; [9]", "result": "> 250", "unit": "µM"}
    ]}
  ]
}
